According to the supplement of paper PMC10307832:

What was measured:
Assay in all cases: relative viability (nuclei count vs DMSO), 5 days (fraction); higher = more cells survive
[1] = compound: CCN1C(=O)C2=CC(=C(N=C2N(C1=O)C3CC3)N)C(=O)N + C[C@@H](Oc1cc(-c2cnn(C3CCNCC3)c2)cnc1N)c1c(Cl)ccc(F)c1Cl [Crizotinib] (partner 1 µM)
Procedure, shortened: (§1)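 One day after seeding in 1536-well plates, lung cancer cell lines were dosed by pin tool. Dosing was either single-drug or a fixed anchor-drug dose plus five library-drug doses (not always all listed) in √10 steps. After 5 days, nuclei were stained in one fix-and-stain step and counted on 4× images, and relative viability is the nuclei count of treated wells over that of vehicle wells, given as the median of duplicate plates.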

[2] = compound: CCN1C(=O)C2=CC(=C(N=C2N(C1=O)C3CC3)N)C(=O)N + CS(=O)(=O)N1CCN(Cc2cc3nc(-c4cccc5[nH]ncc45)nc(N4CCOCC4)c3s2)CC1 [Pictilisib] (partner 1 µM)
Procedure, shortened: as §1

[3] = compound: CCN1C(=O)C2=CC(=C(N=C2N(C1=O)C3CC3)N)C(=O)N + CS(=O)(=O)CCNCc1ccc(-c2ccc3ncnc(Nc4ccc(OCc5cccc(F)c5)c(Cl)c4)c3c2)o1 [Lapatinib] (partner 2 µM)
Procedure, shortened: as §1

[4] = compound: CCN1C(=O)C2=CC(=C(N=C2N(C1=O)C3CC3)N)C(=O)N + N=C(N)NC(=N)NCCc1ccccc1 [Phenformin] (partner 250 µM)
Procedure, shortened: as §1

[5] = compound: CCN1C(=O)C2=CC(=C(N=C2N(C1=O)C3CC3)N)C(=O)N + CC1(C)CCC(c2ccc(Cl)cc2)=C(CN2CCN(c3ccc(C(=O)NS(=O)(=O)c4ccc(N[C@H](CCN5CCOCC5)CSc5ccccc5)c(S(=O)(=O)C(F)(F)F)c4)cc3)CC2)C1 [Navitoclax] (partner 0.5 µM)
Procedure, shortened: as §1

[6] = compound: CCN1C(=O)C2=CC(=C(N=C2N(C1=O)C3CC3)N)C(=O)N + COc1cc2c(Oc3ccc(NC(=O)C4(C(=O)Nc5ccc(F)cc5)CC4)cc3F)ccnc2cc1OCCCN1CCOCC1 [Foretinib] (partner 0.25 µM)
Procedure, shortened: as §1

[7] = compound: CCN1C(=O)C2=CC(=C(N=C2N(C1=O)C3CC3)N)C(=O)N + Cc1nc(NC(=O)N2CCC[C@H]2C(N)=O)sc1-c1ccnc(C(C)(C)C(F)(F)F)c1 [Alpelisib] (partner 2 µM)
Procedure, shortened: as §1

[8] = compound: CCN1C(=O)C2=CC(=C(N=C2N(C1=O)C3CC3)N)C(=O)N + C[C@]1(O)C[C@@H](c2nc(-c3ccc4ccc(-c5ccccc5)nc4c3)c3c(N)nccn32)C1 [Linsitinib] (partner 1 µM)
Procedure, shortened: as §1

[9] = compound: CCN1C(=O)C2=CC(=C(N=C2N(C1=O)C3CC3)N)C(=O)N + O=C(c1cc(Cc2n[nH]c(=O)c3ccccc23)ccc1F)N1CCN(C(=O)C2CC2)CC1 [Olaparib] (partner 8 µM)
Procedure, shortened: as §1

[10] = compound: CCN1C(=O)C2=CC(=C(N=C2N(C1=O)C3CC3)N)C(=O)N + Nc1ncn([C@H]2C[C@H](O)[C@@H](CO)O2)c(=O)n1 [Decitabine] (partner 2 µM)
Procedure, shortened: as §1

[11] = compound: CCN1C(=O)C2=CC(=C(N=C2N(C1=O)C3CC3)N)C(=O)N
Procedure, shortened: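 Vehicle-anchored 1536-well plates of lung cancer cell lines, held overnight at 37 °C, were pinned with five library-drug doses (not always all listed) spaced by √10. No medium change followed over the next 5 days, after which the cells were fixed, permeabilised and Hoechst-stained together and imaged at 4×. Nuclei were counted with MetaXpress, and viability is treated-well nuclei over vehicle-well nuclei, taken as a median across plates. Plates passed with control CV below 25% and at least one doubling.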

[12] = compound: CCN1C(=O)C2=CC(=C(N=C2N(C1=O)C3CC3)N)C(=O)N + CC(C)C[C@H](NC(=O)[C@H](Cc1ccccc1)NC(=O)c1cnccn1)B(O)O [Bortezomib] (partner 0.002 µM)
Procedure, shortened: as §1

## A549
[1]; first compound 0.253 µM
  relative viability: 0.712
[1]; first compound 0.8 µM
  relative viability: 0.76
[1]; first compound 2.53 µM
  relative viability: 0.732
[1]; first compound 8 µM
  relative viability: 0.886
[2]; first compound 0.253 µM
  relative viability: 0.557
[2]; first compound 0.8 µM
  relative viability: 0.553
[2]; first compound 2.53 µM
  relative viability: 0.41
[2]; first compound 8 µM
  relative viability: 0.592
[3]; first compound 0.253 µM
  relative viability: 0.981
[3]; first compound 0.8 µM
  relative viability: 0.914
[3]; first compound 2.53 µM
  relative viability: 0.94
[3]; first compound 8 µM
  relative viability: 1.1
[4]; first compound 0.8 µM
  relative viability: 0.22
[4]; first compound 2.53 µM
  relative viability: 0.155
[4]; first compound 8 µM
  relative viability: 0.155
[5]; first compound 0.253 µM
  relative viability: 1.14
[5]; first compound 0.8 µM
  relative viability: 1.13
[5]; first compound 2.53 µM
  relative viability: 1.22
[5]; first compound 8 µM
  relative viability: 1.16
[6]; first compound 0.253 µM
  relative viability: 0.898
[6]; first compound 0.8 µM
  relative viability: 1.06
[6]; first compound 2.53 µM
  relative viability: 0.809
[6]; first compound 8 µM
  relative viability: 1.01
[7]; first compound 0.253 µM
  relative viability: 0.698
[7]; first compound 0.8 µM
  relative viability: 0.858
[7]; first compound 2.53 µM
  relative viability: 0.746
[7]; first compound 8 µM
  relative viability: 0.931
[8]; first compound 0.8 µM
  relative viability: 0.605
[8]; first compound 2.53 µM
  relative viability: 0.505
[8]; first compound 8 µM
  relative viability: 0.516
[9]; first compound 0.8 µM
  relative viability: 0.305
[9]; first compound 2.53 µM
  relative viability: 0.302
[9]; first compound 8 µM
  relative viability: 0.392
[10]; first compound 0.253 µM
  relative viability: 0.215
[10]; first compound 0.8 µM
  relative viability: 0.341
[10]; first compound 2.53 µM
  relative viability: 0.218
[10]; first compound 8 µM
  relative viability: 0.11
[11]; 0.253 µM
  relative viability: 0.985
[11]; 0.8 µM
  relative viability: 1.02
[11]; 2.53 µM
  relative viability: 0.962
[11]; 8 µM
  relative viability: 0.956

## Calu-6
[1]; first compound 0.253 µM
  relative viability: 0.808
[1]; first compound 0.8 µM
  relative viability: 0.81
[1]; first compound 2.53 µM
  relative viability: 0.721
[1]; first compound 8 µM
  relative viability: 0.805
[2]; first compound 0.253 µM
  relative viability: 0.925
[2]; first compound 0.8 µM
  relative viability: 0.819
[2]; first compound 2.53 µM
  relative viability: 0.923
[2]; first compound 8 µM
  relative viability: 1
[3]; first compound 0.253 µM
  relative viability: 1.06
[3]; first compound 0.8 µM
  relative viability: 1.05
[3]; first compound 2.53 µM
  relative viability: 0.957
[3]; first compound 8 µM
  relative viability: 0.997
[12]; first compound 0.253 µM
  relative viability: 1
[12]; first compound 0.8 µM
  relative viability: 0.954
[12]; first compound 2.53 µM
  relative viability: 1.02
[12]; first compound 8 µM
  relative viability: 0.958
[5]; first compound 0.253 µM
  relative viability: 0.828
[5]; first compound 0.8 µM
  relative viability: 0.822
[5]; first compound 2.53 µM
  relative viability: 0.826
[5]; first compound 8 µM
  relative viability: 0.883
[6]; first compound 0.253 µM
  relative viability: 0.892
[6]; first compound 0.8 µM
  relative viability: 0.809
[6]; first compound 2.53 µM
  relative viability: 0.845
[6]; first compound 8 µM
  relative viability: 0.803
[7]; first compound 0.253 µM
  relative viability: 1.03
[7]; first compound 0.8 µM
  relative viability: 0.876
[7]; first compound 2.53 µM
  relative viability: 0.866
[7]; first compound 8 µM
  relative viability: 0.925
[8]; first compound 0.253 µM
  relative viability: 0.924
[8]; first compound 0.8 µM
  relative viability: 0.946
[8]; first compound 2.53 µM
  relative viability: 0.869
[8]; first compound 8 µM
  relative viability: 0.866
[9]; first compound 0.253 µM
  relative viability: 0.554
[9]; first compound 0.8 µM
  relative viability: 0.573
[9]; first compound 2.53 µM
  relative viability: 0.582
[9]; first compound 8 µM
  relative viability: 0.566
[11]; 0.253 µM
  relative viability: 0.963
[11]; 0.8 µM
  relative viability: 1.01
[11]; 2.53 µM
  relative viability: 0.902
[11]; 8 µM
  relative viability: 0.905

## EBC-1
[1]; first compound 0.253 µM
  relative viability: 0.163
[1]; first compound 0.8 µM
  relative viability: 0.184
[1]; first compound 2.53 µM
  relative viability: 0.208
[1]; first compound 8 µM
  relative viability: 0.218
[2]; first compound 0.253 µM
  relative viability: 0.35
[2]; first compound 0.8 µM
  relative viability: 0.352
[2]; first compound 2.53 µM
  relative viability: 0.335
[2]; first compound 8 µM
  relative viability: 0.494
[3]; first compound 0.253 µM
  relative viability: 0.186
[3]; first compound 0.8 µM
  relative viability: 0.204
[3]; first compound 2.53 µM
  relative viability: 0.206
[3]; first compound 8 µM
  relative viability: 0.211
[12]; first compound 0.253 µM
  relative viability: 0.496
[12]; first compound 0.8 µM
  relative viability: 0.5
[12]; first compound 2.53 µM
  relative viability: 0.489
[12]; first compound 8 µM
  relative viability: 0.61
[5]; first compound 0.253 µM
  relative viability: 0.441
[5]; first compound 0.8 µM
  relative viability: 0.43
[5]; first compound 2.53 µM
  relative viability: 0.451
[5]; first compound 8 µM
  relative viability: 0.378
[6]; first compound 0.253 µM
  relative viability: 0.105
[6]; first compound 0.8 µM
  relative viability: 0.114
[6]; first compound 2.53 µM
  relative viability: 0.104
[6]; first compound 8 µM
  relative viability: 0.119
[7]; first compound 0.253 µM
  relative viability: 0.84
[7]; first compound 0.8 µM
  relative viability: 0.77
[7]; first compound 2.53 µM
  relative viability: 0.78
[7]; first compound 8 µM
  relative viability: 0.834
[8]; first compound 0.253 µM
  relative viability: 0.851
[8]; first compound 0.8 µM
  relative viability: 0.938
[8]; first compound 2.53 µM
  relative viability: 0.808
[8]; first compound 8 µM
  relative viability: 0.886
[9]; first compound 0.253 µM
  relative viability: 0.7
[9]; first compound 0.8 µM
  relative viability: 0.695
[9]; first compound 2.53 µM
  relative viability: 0.618
[9]; first compound 8 µM
  relative viability: 0.777
[11]; 0.253 µM
  relative viability: 0.932
[11]; 0.8 µM
  relative viability: 1.02
[11]; 2.53 µM
  relative viability: 0.979
[11]; 8 µM
  relative viability: 1.03
